Test results: patent US9682995B2, “Amino-substituted isothiazoles” (BAYER PHARMA AKTIENGESELLSCHAFT, priority 2013, dated 2017)

Experiments:
Experiment in all cases: Kinase Profiling (KINOMEscan)
Type in all cases: binding
[1] = target: 456 kinases (of these 395 non-mutant kinases) (Homo sapiens, UniProt Q96GD4); details: AURKB; 10 μM
[2] = target: 456 kinases (of these 395 non-mutant kinases) (Homo sapiens, UniProt Q14164); details: IKK-epsilon; 10 μM
[3] = target: 456 kinases (of these 395 non-mutant kinases) (Homo sapiens, UniProt Q9HAZ1); details: CLK4; 10 μM
[4] = target: 456 kinases (of these 395 non-mutant kinases) (Homo sapiens, UniProt Q16659); details: ERK3; 10 μM
[5] = target: 456 kinases (of these 395 non-mutant kinases) (Homo sapiens, UniProt P28482); details: ERK2; 10 μM
[6] = target: 456 kinases (of these 395 non-mutant kinases) (Homo sapiens, UniProt Q9H1R3); details: MYLK2; 10 μM
[7] = target: 456 kinases (of these 395 non-mutant kinases) (Homo sapiens, UniProt Q6P3R8); details: NEK5; 10 μM
[8] = target: 456 kinases (of these 395 non-mutant kinases) (Homo sapiens, UniProt P54764); details: EPHA4; 10 μM
[9] = target: 456 kinases (of these 395 non-mutant kinases) (Homo sapiens, UniProt Q86YV6); details: MYLK4; 10 μM
[10] = target: 456 kinases (of these 395 non-mutant kinases) (Homo sapiens, UniProt O15197); details: EPHB6; 10 μM
[11] = target: 456 kinases (of these 395 non-mutant kinases) (Homo sapiens, UniProt P36888); details: 10 μM
[12] = target: 456 kinases (of these 395 non-mutant kinases) (Homo sapiens, UniProt Q9UKE5); details: TNIK; 10 μM
[13] = target: 456 kinases (of these 395 non-mutant kinases) (Homo sapiens, UniProt O94806); details: PRKD3; 10 μM
[14] = target: 456 kinases (of these 395 non-mutant kinases) (Homo sapiens, UniProt Q9BZL6); details: PRKD2; 10 μM
[15] = target: 456 kinases (of these 395 non-mutant kinases) (Homo sapiens, UniProt Q00526); details: CDK3; 10 μM
[16] = target: 456 kinases (of these 395 non-mutant kinases) (Homo sapiens, UniProt P42336, H1047Y); details: PIK3CA(H1047Y); 10 μM
[17] = target: 456 kinases (of these 395 non-mutant kinases) (Homo sapiens, UniProt Q8TDR2); details: STK35; 10 μM
[18] = target: 456 kinases (of these 395 non-mutant kinases) (Homo sapiens, UniProt P10721, V559D/V654A); details: KIT(V559D,V654A); 10 μM
[19] = target: 456 kinases (of these 395 non-mutant kinases) (Homo sapiens, UniProt Q9Y463); details: DYRK1B; 10 μM
[20] = target: 456 kinases (of these 395 non-mutant kinases) (Homo sapiens, UniProt Q9Y5S2); details: MRCKB; 10 μM
[21] = target: 456 kinases (of these 395 non-mutant kinases) (Homo sapiens, UniProt P0C1S8); details: WEE2; 10 μM
[22] = target: 456 kinases (of these 395 non-mutant kinases) (Homo sapiens, UniProt P08922); details: ROS1; 10 μM
[23] = target: 456 kinases (of these 395 non-mutant kinases) (Homo sapiens, UniProt O96013); details: PAK4; 10 μM
[24] = target: 456 kinases (of these 395 non-mutant kinases) (Homo sapiens, UniProt Q9UPE1); details: SRPK3; 10 μM
[25] = target: 456 kinases (of these 395 non-mutant kinases) (Homo sapiens, UniProt P35916); details: FLT4; 10 μM
[26] = target: 456 kinases (of these 395 non-mutant kinases) (Homo sapiens, UniProt Q9P2K8, S808G); details: GCN2(Kin.Dom.2,S808G); 10 μM
[27] = target: 456 kinases (of these 395 non-mutant kinases) (Homo sapiens, UniProt Q86Z02); details: HIPK1; 10 μM
[28] = tested on: 456 kinases (of these 395 non-mutant kinases); details: 10 μM
[29] = target: 456 kinases (of these 395 non-mutant kinases) (Homo sapiens, UniProt Q9UK32); details: 10 μM
[30] = target: 456 kinases (of these 395 non-mutant kinases) (Homo sapiens, UniProt Q86Y07); details: VRK2; 10 μM
[31] = target: 456 kinases (of these 395 non-mutant kinases) (Homo sapiens, UniProt P16234); details: PDGFRA; 10 μM
456 kinases (of these 395 non-mutant kinases) (Homo sapiens, UniProt P16234), sequence (P16234 24-1089 limits assumed, change not shown): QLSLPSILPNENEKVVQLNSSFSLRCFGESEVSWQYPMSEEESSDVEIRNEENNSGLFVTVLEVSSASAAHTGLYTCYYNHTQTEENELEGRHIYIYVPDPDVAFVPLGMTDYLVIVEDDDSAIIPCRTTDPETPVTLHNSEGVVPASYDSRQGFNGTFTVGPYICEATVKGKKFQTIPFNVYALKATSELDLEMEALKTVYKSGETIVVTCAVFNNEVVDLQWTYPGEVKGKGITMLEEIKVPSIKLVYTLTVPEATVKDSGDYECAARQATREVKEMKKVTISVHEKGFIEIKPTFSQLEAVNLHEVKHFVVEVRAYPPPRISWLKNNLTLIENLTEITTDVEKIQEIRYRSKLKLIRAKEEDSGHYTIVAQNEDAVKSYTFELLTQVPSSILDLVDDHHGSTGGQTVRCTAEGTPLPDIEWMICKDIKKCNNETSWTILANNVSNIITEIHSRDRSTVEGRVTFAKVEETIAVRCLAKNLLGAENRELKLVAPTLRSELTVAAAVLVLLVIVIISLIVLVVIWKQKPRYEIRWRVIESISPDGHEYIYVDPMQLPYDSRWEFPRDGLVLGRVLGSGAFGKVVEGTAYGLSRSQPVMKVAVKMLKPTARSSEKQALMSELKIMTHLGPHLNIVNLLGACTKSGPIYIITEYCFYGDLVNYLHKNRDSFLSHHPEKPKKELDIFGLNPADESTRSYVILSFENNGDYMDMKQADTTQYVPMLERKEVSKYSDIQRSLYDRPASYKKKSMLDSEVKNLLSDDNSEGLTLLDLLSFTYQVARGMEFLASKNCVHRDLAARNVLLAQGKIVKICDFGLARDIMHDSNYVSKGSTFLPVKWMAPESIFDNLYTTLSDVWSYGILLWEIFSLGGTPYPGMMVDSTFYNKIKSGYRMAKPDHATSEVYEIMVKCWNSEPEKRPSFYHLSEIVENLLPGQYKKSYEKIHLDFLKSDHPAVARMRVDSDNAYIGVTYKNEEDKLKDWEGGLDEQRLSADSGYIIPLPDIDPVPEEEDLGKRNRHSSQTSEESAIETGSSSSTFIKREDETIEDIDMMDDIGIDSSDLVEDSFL

456 kinases (of these 395 non-mutant kinases) (Homo sapiens, UniProt P36888), sequence (P36888 27-993 limits assumed, change not shown): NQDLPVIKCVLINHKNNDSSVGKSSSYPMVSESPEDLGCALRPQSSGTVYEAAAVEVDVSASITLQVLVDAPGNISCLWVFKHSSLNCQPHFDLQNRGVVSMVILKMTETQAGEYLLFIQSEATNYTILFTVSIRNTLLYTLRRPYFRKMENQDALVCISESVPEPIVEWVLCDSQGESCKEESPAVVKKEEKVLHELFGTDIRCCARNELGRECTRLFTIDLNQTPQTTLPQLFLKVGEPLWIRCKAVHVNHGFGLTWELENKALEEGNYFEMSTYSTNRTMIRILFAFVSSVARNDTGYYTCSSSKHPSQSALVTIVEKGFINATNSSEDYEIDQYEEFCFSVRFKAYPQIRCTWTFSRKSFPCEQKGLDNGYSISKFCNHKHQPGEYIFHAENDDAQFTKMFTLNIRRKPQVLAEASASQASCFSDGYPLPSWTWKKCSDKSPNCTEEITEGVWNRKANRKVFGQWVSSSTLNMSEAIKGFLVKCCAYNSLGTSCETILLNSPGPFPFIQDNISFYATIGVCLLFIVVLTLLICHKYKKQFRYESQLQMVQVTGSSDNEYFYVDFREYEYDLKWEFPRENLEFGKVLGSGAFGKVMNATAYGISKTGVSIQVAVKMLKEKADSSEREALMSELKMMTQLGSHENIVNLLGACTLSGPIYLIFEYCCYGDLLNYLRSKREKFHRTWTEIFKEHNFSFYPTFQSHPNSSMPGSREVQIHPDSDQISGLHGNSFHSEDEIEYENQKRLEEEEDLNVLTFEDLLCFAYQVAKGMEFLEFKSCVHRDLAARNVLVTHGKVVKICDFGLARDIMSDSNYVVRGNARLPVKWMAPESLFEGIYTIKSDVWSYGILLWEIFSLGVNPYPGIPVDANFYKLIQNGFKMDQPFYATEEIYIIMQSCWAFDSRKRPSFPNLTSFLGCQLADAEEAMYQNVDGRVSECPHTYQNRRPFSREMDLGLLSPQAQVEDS
456 kinases (of these 395 non-mutant kinases) (Homo sapiens, UniProt O15197), sequence (O15197 32-1021 limits assumed, change not shown): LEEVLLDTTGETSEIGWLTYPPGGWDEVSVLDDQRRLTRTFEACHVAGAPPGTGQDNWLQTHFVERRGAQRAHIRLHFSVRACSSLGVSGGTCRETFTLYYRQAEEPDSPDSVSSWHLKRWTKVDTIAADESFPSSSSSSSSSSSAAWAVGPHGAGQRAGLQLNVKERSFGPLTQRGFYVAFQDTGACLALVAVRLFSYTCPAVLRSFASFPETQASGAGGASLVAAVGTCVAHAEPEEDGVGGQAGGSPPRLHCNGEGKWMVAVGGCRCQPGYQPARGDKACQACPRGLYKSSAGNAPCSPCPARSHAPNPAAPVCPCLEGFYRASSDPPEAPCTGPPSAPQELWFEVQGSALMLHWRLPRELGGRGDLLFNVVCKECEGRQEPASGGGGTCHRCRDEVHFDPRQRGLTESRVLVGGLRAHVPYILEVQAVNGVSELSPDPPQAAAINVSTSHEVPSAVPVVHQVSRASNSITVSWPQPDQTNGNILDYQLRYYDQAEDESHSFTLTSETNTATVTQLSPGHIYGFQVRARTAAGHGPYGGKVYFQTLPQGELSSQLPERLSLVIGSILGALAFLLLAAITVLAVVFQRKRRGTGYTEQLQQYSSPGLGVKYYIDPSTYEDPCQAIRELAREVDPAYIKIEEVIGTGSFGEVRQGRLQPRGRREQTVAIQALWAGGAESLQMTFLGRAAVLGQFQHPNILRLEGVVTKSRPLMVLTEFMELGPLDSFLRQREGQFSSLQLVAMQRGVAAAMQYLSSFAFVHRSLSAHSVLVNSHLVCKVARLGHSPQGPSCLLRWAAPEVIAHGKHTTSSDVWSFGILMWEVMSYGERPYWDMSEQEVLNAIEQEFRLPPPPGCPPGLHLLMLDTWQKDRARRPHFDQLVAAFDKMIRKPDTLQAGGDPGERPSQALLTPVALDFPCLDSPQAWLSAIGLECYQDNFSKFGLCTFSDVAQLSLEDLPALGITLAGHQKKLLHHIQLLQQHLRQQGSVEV
456 kinases (of these 395 non-mutant kinases) (Homo sapiens, UniProt P10721, V559D/V654A), sequence (P10721 26-976 V559D/V654A limits assumed): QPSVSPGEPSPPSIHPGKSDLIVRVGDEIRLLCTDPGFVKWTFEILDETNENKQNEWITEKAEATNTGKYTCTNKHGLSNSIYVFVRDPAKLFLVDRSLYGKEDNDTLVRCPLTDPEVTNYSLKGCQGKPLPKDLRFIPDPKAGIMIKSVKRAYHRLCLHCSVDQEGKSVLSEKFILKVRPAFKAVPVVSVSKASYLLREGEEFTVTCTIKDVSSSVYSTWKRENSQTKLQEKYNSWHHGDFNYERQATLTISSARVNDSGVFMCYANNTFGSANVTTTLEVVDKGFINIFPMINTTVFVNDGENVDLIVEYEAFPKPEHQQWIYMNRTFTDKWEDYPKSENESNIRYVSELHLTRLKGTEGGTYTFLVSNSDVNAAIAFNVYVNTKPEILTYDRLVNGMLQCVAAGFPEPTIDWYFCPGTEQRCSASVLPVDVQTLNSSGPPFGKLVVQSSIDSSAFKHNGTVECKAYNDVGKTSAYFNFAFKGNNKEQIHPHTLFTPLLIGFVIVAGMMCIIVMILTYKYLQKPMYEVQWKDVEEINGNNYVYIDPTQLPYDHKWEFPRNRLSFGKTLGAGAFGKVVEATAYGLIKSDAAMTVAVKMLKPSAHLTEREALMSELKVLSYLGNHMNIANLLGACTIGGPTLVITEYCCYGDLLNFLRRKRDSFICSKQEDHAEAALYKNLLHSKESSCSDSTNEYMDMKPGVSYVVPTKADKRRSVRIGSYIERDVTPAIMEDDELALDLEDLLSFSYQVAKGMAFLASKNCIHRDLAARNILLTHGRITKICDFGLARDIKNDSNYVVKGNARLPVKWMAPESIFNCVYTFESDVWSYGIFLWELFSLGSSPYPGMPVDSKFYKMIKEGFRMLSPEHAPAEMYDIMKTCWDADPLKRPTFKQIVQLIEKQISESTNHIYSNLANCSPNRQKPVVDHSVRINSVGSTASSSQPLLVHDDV
456 kinases (of these 395 non-mutant kinases) (Homo sapiens, UniProt Q9H1R3), sequence (Q9H1R3 2-596 limits assumed, change not shown): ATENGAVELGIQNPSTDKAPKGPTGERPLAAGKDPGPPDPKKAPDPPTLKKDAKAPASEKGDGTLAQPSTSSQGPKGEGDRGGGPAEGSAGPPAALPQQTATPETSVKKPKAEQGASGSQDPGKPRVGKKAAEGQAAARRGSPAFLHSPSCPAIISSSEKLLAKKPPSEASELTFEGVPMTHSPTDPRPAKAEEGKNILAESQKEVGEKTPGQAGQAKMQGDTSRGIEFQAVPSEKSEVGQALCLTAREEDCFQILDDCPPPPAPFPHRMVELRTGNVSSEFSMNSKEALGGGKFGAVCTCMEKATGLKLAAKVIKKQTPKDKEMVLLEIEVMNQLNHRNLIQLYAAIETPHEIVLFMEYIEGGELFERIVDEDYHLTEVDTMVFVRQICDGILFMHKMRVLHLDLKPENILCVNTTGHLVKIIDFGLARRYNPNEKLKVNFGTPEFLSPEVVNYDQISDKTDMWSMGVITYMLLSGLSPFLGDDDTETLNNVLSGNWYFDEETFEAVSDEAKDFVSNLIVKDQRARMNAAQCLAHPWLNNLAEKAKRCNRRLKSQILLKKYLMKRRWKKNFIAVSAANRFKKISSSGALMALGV
456 kinases (of these 395 non-mutant kinases) (Homo sapiens, UniProt P28482), sequence (P28482 2-360 limits assumed, change not shown): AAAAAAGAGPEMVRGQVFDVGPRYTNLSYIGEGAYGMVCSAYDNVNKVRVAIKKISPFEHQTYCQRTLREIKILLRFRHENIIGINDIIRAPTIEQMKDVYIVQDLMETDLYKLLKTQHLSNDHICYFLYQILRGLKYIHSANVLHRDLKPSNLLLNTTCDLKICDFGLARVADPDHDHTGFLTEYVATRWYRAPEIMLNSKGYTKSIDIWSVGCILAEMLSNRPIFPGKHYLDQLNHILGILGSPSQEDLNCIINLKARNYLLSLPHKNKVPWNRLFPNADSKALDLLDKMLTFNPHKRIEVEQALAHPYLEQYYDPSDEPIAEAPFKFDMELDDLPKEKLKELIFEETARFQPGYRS

## CCc1ccccc1NC(=O)c1c(C)nsc1Nc1cnc2cc(F)ccc2n1 [Example 20, N-(2-Ethylphenyl)-5-[(6-fluoroquinoxalin-2-yl)amino]-3-methyl-1,2-thiazole-4-carboxamide]
[1]
  % Ctrl @ 10 μM: 100 % Ctrl
[2]
  % Ctrl @ 10 μM: 100 % Ctrl
[3]
  % Ctrl @ 10 μM: 100 % Ctrl
[4]
  % Ctrl @ 10 μM: 68 % Ctrl
[5]
  % Ctrl @ 10 μM: 96 % Ctrl
[6]
  % Ctrl @ 10 μM: 100 % Ctrl
[7]
  % Ctrl @ 10 μM: 100 % Ctrl
[8]
  % Ctrl @ 10 μM: 100 % Ctrl
[9]
  % Ctrl @ 10 μM: 100 % Ctrl
[10]
  % Ctrl @ 10 μM: 92 % Ctrl
[11]; FLT3-autoinhibited
  % Ctrl @ 10 μM: 100 % Ctrl
[11]; FLT3
  % Ctrl @ 10 μM: 80 % Ctrl
[12]
  % Ctrl @ 10 μM: 100 % Ctrl
[13]
  % Ctrl @ 10 μM: 97 % Ctrl
[14]
  % Ctrl @ 10 μM: 91 % Ctrl
[15]
  % Ctrl @ 10 μM: 100 % Ctrl
[16]
  % Ctrl @ 10 μM: 100 % Ctrl
[17]
  % Ctrl @ 10 μM: 84 % Ctrl
[18]
  % Ctrl @ 10 μM: 96 % Ctrl
[19]
  % Ctrl @ 10 μM: 100 % Ctrl
[20]
  % Ctrl @ 10 μM: 61 % Ctrl
[21]
  % Ctrl @ 10 μM: 100 % Ctrl
[22]
  % Ctrl @ 10 μM: 89 % Ctrl
[23]
  % Ctrl @ 10 μM: 100 % Ctrl
[24]
  % Ctrl @ 10 μM: 87 % Ctrl
[25]
  % Ctrl @ 10 μM: 87 % Ctrl
[26]
  % Ctrl @ 10 μM: 100 % Ctrl
[27]
  % Ctrl @ 10 μM: 100 % Ctrl
[28]; EGFR(L747-E749del, A750P)
  % Ctrl @ 10 μM: 94 % Ctrl
[28]; EGFR(L747-S752del, P753S)
  % Ctrl @ 10 μM: 100 % Ctrl
[28]; EGFR(L747-T751del,Sins)
  % Ctrl @ 10 μM: 100 % Ctrl
[28]; FLT3(ITD)
  % Ctrl @ 10 μM: 67 % Ctrl
[29]; RSK4(Kin.Dom.1-N-terminal)
  % Ctrl @ 10 μM: 100 % Ctrl
[29]; RSK4(Kin.Dom.2-C-terminal)
  % Ctrl @ 10 μM: 75 % Ctrl
[30]
  % Ctrl @ 10 μM: 100 % Ctrl
[31]
  % Ctrl @ 10 μM: 100 % Ctrl
